Test results: paper PMC7944860 (Antiviral Research, 2021)
Where “and” joins values, the source holds several entries; their conditions need not be identical. Identical values can stand only once. Like-named read-outs stand apart in the source and are kept apart here.

Tests used:
Cell viability assay = conditions: human, MRC-5 cells
HCoV-OC43 [1] = experiment: HCoV-OC43 focus reduction assay on MRC-5 cells; assay type: cell-based; conditions: for selectivity index: HCoV-OC43, ratio of CC50 and EC50
SARS-CoV2 [2] = experiment: microbe, parasite or virus in culture; assay type: cell-based; conditions: for EC50: read-out: EC50 (μM) (mean ± SD)
Cytotoxicity assay = conditions: human, Huh7-hACE2 cells
HCoV-OC43 [3] = experiment: HCoV-OC43 virus yield reduction assay on MRC-5 cells; assay type: cell-based; conditions: for EC50: Betacoronavirus 1, OC43, MRC5, 24 h, read-out: EC50 (μM) (mean ± SD), virus yield reduction; for Virus titer reduction Log10 (mean ± SD) at highest tested dose: FFU/mL vs infected untreated control
SARS-CoV2 [4] = experiment: microbe, parasite or virus in culture; assay type: cell-based; conditions: for EC50: read-out: EC50 (μM) (mean ± SD), virus yield reduction
SARS-CoV2 [5] = conditions: 2020, cited from earlier work; for increase of remdesivir inhibitory activity (synergy): ref Bafna et al.
MRC-5 cells = experiment: Cell viability assay; conditions: read-out: CC50 (μM) (mean ± SD), 20 h, MTS
Huh7-hACE2 cells = experiment: Cytotoxicity assay; conditions: read-out: CC50 (μM) (mean ± SD), 20 h, Alamar Blue
[6] = Betacoronavirus 1, OC43, MRC5, 20 h, read-out: EC50 (μM) (mean ± SD), HCoV-OC43, MRC-5 cells, 20 h, focus reduction
[7] = Severe acute respiratory syndrome coronavirus 2, 20 h
[8] = read-out: EC50 (μM) (mean ± SD), HCoV-OC43, MRC-5 cells, 20 h, focus reduction
[9] = HCoV-OC43, MRC-5 cells, 20 h, focus reduction

SMILES	CC50 at 20 h (Cell viability assay) [µM]	EC50 (HCoV-OC43 [1]; [6]) [µM]	EC50 (SARS-CoV2 [2]; [7]) [µM]	CC50 at 20 h (Cytotoxicity assay) [µM]	further results
CC1(C)[C@@H](OC(=O)CCC(=O)O)CC[C@]2(C)[C@H]3C(=O)C=C4[C@@H]5C[C@@](C)(C(=O)O)CC[C@]5(C)CC[C@@]4(C)[C@]3(C)CC[C@@H]12 [Carbenoxolone]	251 ± 17	45.7 ± 8	66 ± 11	> 100	–
O=C1[C@@H]2[C@H]3CC[C@H](C3)[C@@H]2C(=O)N1C[C@@H]1CCCC[C@H]1CN1CCN(c2nsc3ccccc23)CC1 [Lurasidone]	> 1000	1.1 ± 0.4	18 ± 4.6	> 1000	selectivity index (HCoV-OC43 [1]): higher than 600; EC50 (HCoV-OC43 [3]): 8.3 ± 2 µM; Virus titer reduction Log10 (mean ± SD) at highest tested dose (HCoV-OC43 [3]; HCoV-OC43, 100 μM): 6.3 ± 1.5 (100 μM) Log10; Virus titer reduction Log10 (mean ± SD) at highest tested dose (SARS-CoV2 [4]): 1.3 and 1.3 ± 0.3 (100 μM) Log10; EC50 (SARS-CoV2 [4]; [7]): 6.4 ± 3.9 µM
COc1ccc2c(O[C@@H]3C[C@H]4C(=O)N[C@]5(C(=O)NS(=O)(=O)C6CC6)C[C@H]5/C=C\CCCCN(C)C(=O)[C@@H]4C3)cc(-c3nc(C(C)C)cs3)nc2c1C [Simeprevir]	11.1 ± 2.3	~2.1	~9.3	47.5 ± 41	increase of remdesivir inhibitory activity (synergy) (SARS-CoV2 [5]): ≤ 10 fold
Cc1ccc(C(=O)Nc2ccc(CN3CCN(C)CC3)c(C(F)(F)F)c2)cc1C#Cc1cnc2cccnn12 [Ponatinib]	3.1 ± 0.5	0.1 ± 0.05	1.1 ± 0.2	8.7 ± 3.8	–
Cn1nnc(-c2ccc(-c3ccc(N4C[C@H](COP(=O)(O)O)OC4=O)cc3F)cn2)n1 [Tedizolid, Tedizolid phosphate]	–	–	–	–	CC50 (MRC-5 cells): > 1000 µM; EC50 (HCoV-OC43 [1]; [8]): 94 ± 25 µM
C=C[C@@H]1C[C@]1(NC(=O)[C@@H]1C[C@@H]2CN1C(=O)[C@H](C(C)(C)C)NC(=O)O[C@@H]1C[C@H]1CCCCCc1nc3ccc(OC)cc3nc1O2)C(=O)NS(=O)(=O)C1CC1.O [Grazoprevir]	–	–	–	–	CC50 (MRC-5 cells): 70 ± 12.8 µM; EC50 (HCoV-OC43 [1]; [8]): 11 ± 1.1 µM; EC50 (SARS-CoV2 [2]): ~16 µM and 16 µM; increase of remdesivir inhibitory activity (synergy) (SARS-CoV2 [5]): ≤ 10 fold; CC50 (Huh7-hACE2 cells): 118 ± 6 µM; Virus titer reduction Log10 (mean ± SD) at highest tested dose (SARS-CoV2 [4]): 3.9 and 3.9 ± 0.07 (100 μM) Log10; EC50 (SARS-CoV2 [4]): 3.3 ± 0.9 µM
CCc1cc2c(cc1N1CCC(N3CCOCC3)CC1)C(C)(C)c1[nH]c3cc(C#N)ccc3c1C2=O [Alectinib]	> 1000	0.6 ± 0.2	–	–	EC50 (μM) (mean ± SD) (SARS-CoV2 [2]): no activity; EC50 (HCoV-OC43 [3]): 1 ± 0.1 µM; Virus titer reduction Log10 (mean ± SD) at highest tested dose (HCoV-OC43 [3]; HCoV-OC43, 33 μM): 2.9 ± 0.1 (33 μM) Log10
CCN1CCN(C(=O)N[C@@H](C(=O)N[C@@H]2C(=O)N3C(C(=O)O)=C(CSc4nnnn4C)CS[C@H]23)c2ccc(O)cc2)C(=O)C1=O [Cefoperazone]	> 1000	–	–	–	EC50 (μM) (mean ± SD) (HCoV-OC43 [1]; [9]): no antiviral activity
C[C@@H]1C/C=C/C=C/C=C/C=C/[C@H](O[C@@H]2O[C@H](C)[C@@H](O)[C@H](N)[C@@H]2O)C[C@@H]2O[C@](O)(C[C@@H](O)C[C@H]3O[C@@H]3/C=C/C(=O)O1)C[C@H](O)[C@H]2C(=O)O [Natamycin]	47.3 ± 4.4	–	24.3 ± 4.4	35.9 ± 13.4	EC50 (μM) (mean ± SD) (HCoV-OC43 [1]; [9]): no antiviral activity
COC(=O)N[C@H](C(=O)N1CCC[C@H]1c1nc(-c2ccc3c(c2)O[C@@H](c2ccccc2)n2c-3cc3cc(-c4c[nH]c([C@@H]5CCCN5C(=O)[C@@H](NC(=O)OC)C(C)C)n4)ccc32)c[nH]1)C(C)C [Elbasvir]	> 1000	~1.5	~23	> 1000	selectivity index (HCoV-OC43 [1]): higher than 600; increase of remdesivir's apparent potency in preventing SARS-CoV2 replication (SARS-CoV2 [5]; in combination with grazoprevir (Zepatier), ref Nguyenla et al.): 25 fold; EC50 (HCoV-OC43 [3]): 1.3 ± 0.4 µM; Virus titer reduction Log10 (mean ± SD) at highest tested dose (HCoV-OC43 [3]; HCoV-OC43, 100 μM): 1.4 ± 0.2 (100 μM) Log10; Virus titer reduction Log10 (mean ± SD) at highest tested dose (SARS-CoV2 [4]): 0.6 and 0.6 ± 0.2 (100 μM) Log10; EC50 (SARS-CoV2 [4]; [7]): 14.4 ± 7.9 µM
CC1(C)CCC(CN2CCN(c3ccc(C(=O)NS(=O)(=O)c4ccc(NCC5CCOCC5)c([N+](=O)[O-])c4)c(Oc4cnc5[nH]ccc5c4)c3)CC2)=C(c2ccc(Cl)cc2)C1 [Venetoclax]	10.6 ± 1.5	3.5 ± 0.5	~6.2	22 ± 6.2	–
CCc1c2c(nc3ccc(OC(=O)N4CCC(N5CCCCC5)CC4)cc13)-c1cc3c(c(=O)n1C2)COC(=O)[C@]3(O)CC [Irinotecan]	63.4 ± 11.4	–	85.2 ± 17	> 100	EC50 (μM) (mean ± SD) (HCoV-OC43 [1]; [9]): no antiviral activity
COc1cc([C@@H]2c3cc4c(cc3[C@@H](O[C@@H]3O[C@@H]5CO[C@@H](c6cccs6)O[C@H]5[C@H](O)[C@H]3O)[C@H]3COC(=O)[C@H]23)OCO4)cc(OC)c1O [Teniposide]	701 ± 281	–	97 ± 0.7	> 100	EC50 (μM) (mean ± SD) (HCoV-OC43 [1]; [9]): no antiviral activity
Cc1ccc(C(=O)Nc2ccc(S(=O)(=O)O)c3cc(S(=O)(=O)O)cc(S(=O)(=O)O)c23)cc1NC(=O)c1cccc(NC(=O)Nc2cccc(C(=O)Nc3cc(C(=O)Nc4ccc(S(=O)(=O)O)c5cc(S(=O)(=O)O)cc(S(=O)(=O)O)c45)ccc3C)c2)c1 [Suramin]	> 1000	19.3 ± 4.3	64 ± 6.6	> 100	–
